Results reported in the supplement of paper PMC11208160.

Experiment: recombinant UMI read abundance after kanamycin selection (control-corrected) (log10(CPM+1)); higher = more efficient recombination; extreme values may be limits of the assay; sequences stand for … in AGTGCAGAGAAAATCGGCCAGTTTTCTCTGCCTGCAGTCCGCATGCCGTGGGACCCCTTGGGTTCTAACCTGTTGCCTAGATTTATGCAGCGGACTGCCTTTCTCCCAAAGTGATAAACCGG…AGGTTGGTTTCACT; site = the 11-nt donor
Outline: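 Counts of recombinant UMIs were reported as log10(CPM+1). Before that, they were converted to CPM, averaged over replicates and scaled using control-derived factors. They came from PCR across the donor–target junction after Escherichia coli carrying the pair library and target plasmid was plated on IPTG (0.07 mM) plus kanamycin, or unselected, in two replicates each.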
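Note: IS621 bridge recombinase in Escherichia coli cells against a fixed T5 target plasmid.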

Question: For “GCACCTTCATGGACCGGTTTTCCCGGTAATCCGTATTTGTT (site GCACCTTCTAA)”, which “recombinant UMI read abundance (log10)” value is on record?
Answer: 1.09

Question: With “GCACGATCATGGACCGGTTTTCCCGGTAATCCGTATTTGTA (site GCACGATCTTA)” as the sequence, how does the “recombinant UMI read abundance (log10)” value read?
Answer: 2.74

Question: For “GCACTGCCATGGACCGGTTTTCCCGGTAATCCGTATTTGCT (site GCACTGCCTAG)”, which “recombinant UMI read abundance (log10)” value is on record?
Answer: 1.41

Question: With “GCACTTCCATGGACCGGTTTTCCCGGTAATCCGTATTTGTT (site GCACTTCCTAA)” as the sequence, how does the “recombinant UMI read abundance (log10)” value read?
Answer: 0.561

Question: For “GCAGAAACATGGACCGGTTTTCCCGGTAATCCGTATTTGGC (site GCAGAAACTGC)”, which “recombinant UMI read abundance (log10)” value is on record?
Answer: 2.87

Question: Which “recombinant UMI read abundance (log10)” value does the source give for “GCAGTAGCATGGACCGGTTTTCCCGGTAATCCGTATTTGCC (site GCAGTAGCTGG)” here?
Answer: 0.831

Question: With “GCAGTGGCATGGACCGGTTTTCCCGGTAATCCGTATTTGGT (site GAAGTGGCTAC)” as the sequence, how does the “recombinant UMI read abundance (log10)” value read?
Answer: 0.0767

Question: For “GCAGTGGCATGGACCGGTTTTCCCGGTAATCCGTATTTGGT (site GCAGTGGCTAC)”, which “recombinant UMI read abundance (log10)” value is on record?
Answer: 0.668

Question: For “GCAGTGGCATGGACCGGTTTTCCCGGTAATCCGTATTTGGT (site GGAGTGGCTAC)”, which “recombinant UMI read abundance (log10)” value is on record?
Answer: 0.276

Question: For “GCAGTGGCATGGACCGGTTTTCCCGGTAATCCGTATTTGGT (site GTAGTGGCTAC)”, which “recombinant UMI read abundance (log10)” value is on record?
Answer: 0.0239

Question: For “GCATACCCATGGACCGGTTTTCCCGGTAATCCGTATTTGAC (site GCATACCCTGT)”, which “recombinant UMI read abundance (log10)” value is on record?
Answer: 1.04

Question: Which “recombinant UMI read abundance (log10)” value does the source give for “GCATCAGCATGGACCGGTTTTCCCGGTAATCCGTATTTGTG (site GCATCAGCTCA)” here?
Answer: 1.49

Question: For “GCATGGGCATGGACCGGTTTTCCCGGTAATCCGTATTTGAG (site GCATGGGCTCT)”, which “recombinant UMI read abundance (log10)” value is on record?
Answer: 1.33

Question: For “GCATTATCATGGACCGGTTTTCCCGGTAATCCGTATTTGGC (site GCATTATCTGC)”, which “recombinant UMI read abundance (log10)” value is on record?
Answer: 2.82

Question: With “GCCAAGCCATGGACCGGTTTTCCCGGTAATCCGTATTTGTA (site GCCAAGCCTTA)” as the sequence, how does the “recombinant UMI read abundance (log10)” value read?
Answer: 1.69

Question: With “GCCAAGCCATGGACCGGTTTTCCCGGTAATCCGTATTTGTA (site GCCACGCCTTA)” as the sequence, how does the “recombinant UMI read abundance (log10)” value read?
Answer: 0.00534

Question: For “GCCAAGCCATGGACCGGTTTTCCCGGTAATCCGTATTTGTA (site GCCAGGCCTTA)”, which “recombinant UMI read abundance (log10)” value is on record?
Answer: 0.00969

Question: Which “recombinant UMI read abundance (log10)” value does the source give for “GCCAAGCCATGGACCGGTTTTCCCGGTAATCCGTATTTGTA (site GCCATGCCTTA)” here?
Answer: 0.00407

Question: Which “recombinant UMI read abundance (log10)” value does the source give for “GCCACGACATGGACCGGTTTTCCCGGTAATCCGTATTTGTA (site GCCACGACTTA)” here?
Answer: 2.11

Question: Which “recombinant UMI read abundance (log10)” value does the source give for “GCCACGACATGGACCGGTTTTCCCGGTAATCCGTATTTGTA (site GCCACGCCTTA)” here?
Answer: 0.00858

Question: Which “recombinant UMI read abundance (log10)” value does the source give for “GCCACGACATGGACCGGTTTTCCCGGTAATCCGTATTTGTA (site GCCACGGCTTA)” here?
Answer: 0.423

Question: With “GCCACGACATGGACCGGTTTTCCCGGTAATCCGTATTTGTA (site GCCACGTCTTA)” as the sequence, how does the “recombinant UMI read abundance (log10)” value read?
Answer: 0.283

Question: For “GCCAGGACATGGACCGGTTTTCCCGGTAATCCGTATTTGTT (site GCCAGGACTAA)”, which “recombinant UMI read abundance (log10)” value is on record?
Answer: 1.71

Question: Which “recombinant UMI read abundance (log10)” value does the source give for “GCCAGGCCATGGACCGGTTTTCCCGGTAATCCGTATTTGTA (site GCCAAGCCTTA)” here?
Answer: 0.198

Question: With “GCCAGGCCATGGACCGGTTTTCCCGGTAATCCGTATTTGTA (site GCCACGCCTTA)” as the sequence, how does the “recombinant UMI read abundance (log10)” value read?
Answer: 0.00645

Question: For “GCCAGGCCATGGACCGGTTTTCCCGGTAATCCGTATTTGTA (site GCCAGGCCTTA)”, which “recombinant UMI read abundance (log10)” value is on record?
Answer: 0.112

Question: For “GCCAGGCCATGGACCGGTTTTCCCGGTAATCCGTATTTGTA (site GCCATGCCTTA)”, which “recombinant UMI read abundance (log10)” value is on record?
Answer: 0.00384

Question: For “GCCATATCATGGACCGGTTTTCCCGGTAATCCGTATTTGTC (site ACCATATCTGA)”, which “recombinant UMI read abundance (log10)” value is on record?
Answer: 1.74

Question: Which “recombinant UMI read abundance (log10)” value does the source give for “GCCATATCATGGACCGGTTTTCCCGGTAATCCGTATTTGTC (site CCCATATCTGA)” here?
Answer: 0.61

Question: With “GCCATATCATGGACCGGTTTTCCCGGTAATCCGTATTTGTC (site GCCATATCTGA)” as the sequence, how does the “recombinant UMI read abundance (log10)” value read?
Answer: 1.87

Question: With “GCCATATCATGGACCGGTTTTCCCGGTAATCCGTATTTGTC (site TCCATATCTGA)” as the sequence, how does the “recombinant UMI read abundance (log10)” value read?
Answer: 1.87

Question: For “GCCCACCCATGGACCGGTTTTCCCGGTAATCCGTATTTGAA (site GCCCACCCTTT)”, which “recombinant UMI read abundance (log10)” value is on record?
Answer: 0.362

Question: Which “recombinant UMI read abundance (log10)” value does the source give for “GCCCCTACATGGACCGGTTTTCCCGGTAATCCGTATTTGCC (site GCCCCTACTGG)” here?
Answer: 2.33

Question: With “GCCCGAACATGGACCGGTTTTCCCGGTAATCCGTATTTGTC (site GCCCGAACTGA)” as the sequence, how does the “recombinant UMI read abundance (log10)” value read?
Answer: 1.98

Question: With “GCCGACTCATGGACCGGTTTTCCCGGTAATCCGTATTTGCG (site GCCGACTCTCG)” as the sequence, how does the “recombinant UMI read abundance (log10)” value read?
Answer: 2.35

Question: For “GCCGAGCCATGGACCGGTTTTCCCGGTAATCCGTATTTGTA (site GCCGAGCCTTA)”, which “recombinant UMI read abundance (log10)” value is on record?
Answer: 0.381

Question: For “GCCGCACCATGGACCGGTTTTCCCGGTAATCCGTATTTGGA (site GCCGCACCTTC)”, which “recombinant UMI read abundance (log10)” value is on record?
Answer: 0.0196

Question: Which “recombinant UMI read abundance (log10)” value does the source give for “GCCGCGCCATGGACCGGTTTTCCCGGTAATCCGTATTTGGG (site GCCGCGCCTCC)” here?
Answer: 0.0148

Question: Which “recombinant UMI read abundance (log10)” value does the source give for “GCCGTCCCATGGACCGGTTTTCCCGGTAATCCGTATTTGCA (site GCCGTCCCTTG)” here?
Answer: 0.345

Question: With “GCCTACCCATGGACCGGTTTTCCCGGTAATCCGTATTTGAA (site GCCTACCCTTT)” as the sequence, how does the “recombinant UMI read abundance (log10)” value read?
Answer: 0.0461

Question: Which “recombinant UMI read abundance (log10)” value does the source give for “GCCTAGACATGGACCGGTTTTCCCGGTAATCCGTATTTGGG (site ACCTAGACTCC)” here?
Answer: 0.186

Question: For “GCCTAGACATGGACCGGTTTTCCCGGTAATCCGTATTTGGG (site CCCTAGACTCC)”, which “recombinant UMI read abundance (log10)” value is on record?
Answer: 0.0341

Question: With “GCCTAGACATGGACCGGTTTTCCCGGTAATCCGTATTTGGG (site GCCTAGACTCC)” as the sequence, how does the “recombinant UMI read abundance (log10)” value read?
Answer: 0.283

Question: Which “recombinant UMI read abundance (log10)” value does the source give for “GCCTAGACATGGACCGGTTTTCCCGGTAATCCGTATTTGGG (site TCCTAGACTCC)” here?
Answer: 0.0888

Question: Which “recombinant UMI read abundance (log10)” value does the source give for “GCCTAGCCATGGACCGGTTTTCCCGGTAATCCGTATTTGCC (site ACCTAGCCTGG)” here?
Answer: 0

Question: With “GCCTAGCCATGGACCGGTTTTCCCGGTAATCCGTATTTGCC (site CCCTAGCCTGG)” as the sequence, how does the “recombinant UMI read abundance (log10)” value read?
Answer: 0

Question: For “GCCTAGCCATGGACCGGTTTTCCCGGTAATCCGTATTTGCC (site GCCTAGCCTGG)”, which “recombinant UMI read abundance (log10)” value is on record?
Answer: 0

Question: With “GCCTAGCCATGGACCGGTTTTCCCGGTAATCCGTATTTGCC (site TCCTAGCCTGG)” as the sequence, how does the “recombinant UMI read abundance (log10)” value read?
Answer: 0

Question: Which “recombinant UMI read abundance (log10)” value does the source give for “GCCTCCCCATGGACCGGTTTTCCCGGTAATCCGTATTTGGA (site GCCTCCCCTTC)” here?
Answer: 0.0286

Question: With “GCCTGGACATGGACCGGTTTTCCCGGTAATCCGTATTTGGC (site GCCTGGACTGC)” as the sequence, how does the “recombinant UMI read abundance (log10)” value read?
Answer: 0.0803

Question: For “GCCTTCACATGGACCGGTTTTCCCGGTAATCCGTATTTGTT (site GCCTTCACTAA)”, which “recombinant UMI read abundance (log10)” value is on record?
Answer: 0.931

Question: For “GCCTTCTCATGGACCGGTTTTCCCGGTAATCCGTATTTGGG (site ACCTTCTCTCC)”, which “recombinant UMI read abundance (log10)” value is on record?
Answer: 0.00678

Question: For “GCCTTCTCATGGACCGGTTTTCCCGGTAATCCGTATTTGGG (site CCCTTCTCTCC)”, which “recombinant UMI read abundance (log10)” value is on record?
Answer: 0.0122

Question: For “GCCTTCTCATGGACCGGTTTTCCCGGTAATCCGTATTTGGG (site GCCTTCTCTCC)”, which “recombinant UMI read abundance (log10)” value is on record?
Answer: 0.00741

Question: With “GCCTTCTCATGGACCGGTTTTCCCGGTAATCCGTATTTGGG (site TCCTTCTCTCC)” as the sequence, how does the “recombinant UMI read abundance (log10)” value read?
Answer: 0.0193

Question: Which “recombinant UMI read abundance (log10)” value does the source give for “GCGAAACCATGGACCGGTTTTCCCGGTAATCCGTATTTGGG (site GCGAAACCTCC)” here?
Answer: 0

Question: With “GCGAAACCATGGACCGGTTTTCCCGGTAATCCGTATTTGGG (site GCGAACCCTCC)” as the sequence, how does the “recombinant UMI read abundance (log10)” value read?
Answer: 0.0118
